Experimental data as given in patent US20080249132A1, “Piperidine Carboxyamide Derivate Suitable as Tachykinin Receptor Antagonist” (priority 2005, published 2008).

Biological target: T1, recombinant human NK1 receptors (Homo sapiens, UniProt P25103)
T1 construct: expressed in transfected cells; membrane preparation
Assay: NK1 receptor filtration binding assay, displacement of [3H]-Substance P
Conditions: displacement of [3H]-substance P from recombinant human NK1 receptors expressed in CHO cell membranes; average of at least two determinations; read-out: pKi (negative logarithm of the inhibition constant Ki) (converted)
Procedure: NK1-receptor binding affinity has been determined in vitro in filtration binding assay by measuring the compounds' ability to displace [^3H]-Substance P (SP) from recombinant human NK1 receptors stably expressed in Chinese Hamster Ovary (CHO) cell membranes prepared by using a modification of the method described by Beattie D. T. et al. (Br. J. Pharmacol, 116:3149-3157, 1995).
Briefly, ligand binding was performed in 0.4 ml of 50 mM HEPES, pH 7.4, containing 3 mM MnCl2, 0.02% BSA, 0.5 nM [^3H]-Substance P (30-56 Ci/mmol Amersham), a final membrane protein concentration of 30-50 μg/ml, and the test compounds. The incubation proceeded at room temperature for 40 min and was stopped by filtration. Non-specific binding was determined using excess of substance P (1 μM) and represents about 6-10% of the total binding. IC50 values of each compound were determined by an 8-point 10×-dilution inhibition curve. pKi values were calculated using the KD of [^3H]-Substance P determined in a separate experiment.
The affinity of the compound of the invention for NK1 receptor was determined using the NK1 receptor binding affinity method measuring in vitro the compounds' ability to displace [3H]—substance P (SP) from recombinant human NK1 receptors expressed in Chinese Hamster Ovary (CHO) cell membranes. […]

T1 sequence (P25103 whole entry): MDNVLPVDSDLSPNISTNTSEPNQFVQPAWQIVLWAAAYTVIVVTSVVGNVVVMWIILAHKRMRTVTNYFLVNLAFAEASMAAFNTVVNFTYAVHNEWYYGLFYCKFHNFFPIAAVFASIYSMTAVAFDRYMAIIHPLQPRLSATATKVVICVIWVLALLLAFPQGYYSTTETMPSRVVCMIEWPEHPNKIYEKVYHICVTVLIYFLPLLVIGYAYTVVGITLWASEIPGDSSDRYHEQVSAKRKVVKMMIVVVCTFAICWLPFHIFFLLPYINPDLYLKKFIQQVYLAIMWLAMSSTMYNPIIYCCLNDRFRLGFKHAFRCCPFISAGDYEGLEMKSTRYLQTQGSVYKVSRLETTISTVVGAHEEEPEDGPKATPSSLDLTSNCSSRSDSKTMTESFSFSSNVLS

For `CC(=O)NCCN[C@H]1CCN(C(=O)N(C)[C@H](C)c2cc(C(F)(F)F)cc(C(F)(F)F)c2)[C@@H](c2ccc(F)cc2C)C1` [Example 1, (2R,4S)-4-{[2-(acetylamino)ethyl]amino}-N-{(1R)-1-(3,5-bis(trifluoromethyl)phenyl)ethyl}-2-(4-fluoro-2-methylphenyl)-N-methyl-1-piperidinecarboxamide], the Ki was 20 pM.
